Experimental data published in patent US12227494B2, “Polymorphisms of HM30181 mesylate” (ATHENEX R&D, LLC, priority 2020, dated 2025).

Assay: Polymorph screening (slurry, liquid vapor diffusion, cooling, evaporation, anti-solvent, large scale) with crystal type by XRPD
Assay type: physicochemical
Details: for Observations: large scale (200 mg)
Procedure: Slurry-based generation and/or screening for HM30181 mesylate polymorphs was performed by preparing slurries of starting material HM30181 mesylate Type A in a variety of solvents and under a variety of conditions as described below. The resulting solids were analyzed by XRPD and identified for physical state.
Generation and/or screening of HM30181 mesylate polymorphs was also performed by preparing HM30181 mesylate Type A starting material for liquid and solid vapor diffusion as described below. Resulting solids were analyzed by XRPD and identified for physical state. Liquid vapor diffusion of MTBE into NMP solution yielded HM30181 mesylate Type D (see FIG. 21). Liquid vapor diffusion of MEK into NMP or DMA solution yielded HM30181 mesylate Type D (see FIG. 21). […] Liquid vapor diffusion of 2-MeTHF into DMA or DMF solution yielded HM30181 mesylate Type E (see FIG. 22). Liquid vapor diffusion of MTBE into DMA solution yielded HM30181 mesylate Type E, with a few additional diffraction peaks, which Inventors believe are attributable to HM30181 mesylate Type I (see FIGS. 4 to 8). Liquid vapor diffusion of ACN into DMSO solution yielded HM30181 mesylate Type H (see FIG. 23). Liquid vapor diffusion of Acetone, Ethyl Acetate, or isopropyl acetate into DMA solution yielded HM30181 mesylate Type I (see FIG. 24).
Generation and/or screening of HM30181 mesylate polymorphs by cooling was carried out by treating HM30181 mesylate Type A starting material using gradual or rapid (i.e. crash) cooling as described below. The resulting solids were analyzed by XRPD and identified for physical state.
HM30181 mesylate was also subjected to evaporation methods by treating HM30181 mesylate Type A starting material as described below. The resulting solids were analyzed by XRPD and identified for physical state.
Generation and/or screening of HM30181 mesylate polymorphs by treatment with anti-solvents was performed by treating HM30181 mesylate Type A starting material as described below. The resulting solids were analyzed by XRPD and identified for physical state. Anti-solvent studies in DMSO yielded HM30181 mesylate Type C (see FIG. 26). Anti-solvent studies in N,N-dimethylacetamide with methyl t-butyl ether yielded a HM30181 mesylate Type F polymorphism (see FIG. 27). Anti-solvent addition and reverse anti-solvent addition in DMSO/EtOAc, DMA/MIBK, DMA/toluene and NMP/t-BuOH yielded primarily amorphous content and a polymorphism with some similarity to HM30181 mesylate Type J (see FIG. 28). Other anti-solvent studies in DMSO and DMF yielded a HM30181 mesylate Type K polymorphism (or possibly a mixture of types, see FIG. 29). Anti-solvent experiments in DMF/n-propanol and DMA/isopropanol yielded a HM30181 mesylate Type L polymorphism (see FIG. 30). Anti-solvent addition DMF/Toluene and DMA/t-BuOH were mostly amorphous, but also generated HM30181 mesylate Type M (see FIG. 31).
Large scale studies were performed with HM30181 mesylate Type A starting material on a 200 mg scale as described below. Solids were isolated by vacuum filtration. The wet cakes from filtration from DMA, DMF, and NMP slurries were washed with 1 mL to 2 mL methanol to remove solvents. Solids were then vacuum dried at 80° C. overnight.
Screening of polymorphisms of HM30181 mesylate can include preparation of a slurry. Typically, a slurry was prepared by suspending 5 mg to 20 mg of sample in 0.1 mL to 0.5 mL solvent in a 1.5 mL or 3.0 mL glass vial. The suspension a was stirred at target temperature (e.g. 4° C., ambient temperature, 50° C.) at 200 rpm. Solids for X-ray powder diffraction (XRPD) analysis were separated by centrifuging at 14,000 rpm for 5 minutes at ambient temperature. If no solid or gel is obtained, the slurry can be move to a fume hood for evaporation of the solvent.
In some embodiments anti-solvent addition was used. […]

COc1cc2c(cc1OC)CN(CCc1ccc(-n3nnc(-c4cc(OC)c(OC)cc4NC(=O)c4cc(=O)c5ccccc5o4)n3)cc1)CC2.CS(=O)(=O)O [HM30181 mesylate Type A, HM30181 mesylate]
XRPD (wet cake) (Crash Cooling 50° C.-->−20° C., CHCl3 4 mL, API 25.4 mg, Exp. 6007235-17-C10): No solids | XRPD (wet cake) (Crash Cooling 50° C.-->−20° C., DCM 10 mL, API 22.1 mg, Exp. 6007235-17-C13): No solids | XRPD (wet cake) (Crash Cooling 50° C.-->−20° C., DMA 4 mL, API 26.9 mg, Exp. 6007235-17-C15): Amorphous | XRPD (wet cake) (Crash Cooling 50° C.-->−20° C., DMF 4 mL, API 25.1 mg, Exp. 6007235-17-C16): Amorphous | XRPD (wet cake) (Crash Cooling 50° C.-->−20° C., EtOH 20 mL, API 5 mg, Exp. 6007235-17-C11): No solids | XRPD (wet cake) (Crash Cooling 50° C.-->−20° C., MeOH 10 mL, API 22.9 mg, Exp. 6007235-17-C9): No solids | XRPD (wet cake) (Crash Cooling 50° C.-->−20° C., NMP 4 mL, API 26.2 mg, Exp. 6007235-17-C14): Amorphous | XRPD (wet cake) (Crash cooling 50° C.-->−20° C., ACN 10 mL, API 12.6 mg, Exp. 6007235-17-C12): Type C | XRPD (wet cake) (Slow Cooling 50° C.-->4° C., ACN 10 mL, API 12.6 mg, Exp. 6007235-17-C4): Type C | XRPD (wet cake) (Slow Cooling 50° C.-->4° C., DMF 4 mL, API 25.1 mg, Exp. 6007235-17-C8): No solids | XRPD (wet cake) (Slow Cooling 50° C.-->4° C., EtOH 20 mL, API 5 mg, Exp. 6007235-17-C3): No solids | XRPD (wet cake) (Slow Cooling 50° C.-->4° C., MeOH 20 mL, API 24.7 mg, Exp. 6007235-17-C1): No solids | XRPD (wet cake) (Slow Cooling 50° C.-->4° C., NMP 4 mL, API 20.9 mg, Exp. 6007235-17-C6): No solids | Identification (anti-solvent (Table 13), solvent CHCl3, anti-solvent EtOH 10 mL, NB 6004273-06-A102): Type A | Identification (anti-solvent (Table 13), solvent CHCl3, anti-solvent MTBE 10 mL, NB 6004273-06-A103): Type A | Identification (anti-solvent (Table 13), solvent CHCl3, anti-solvent n-Heptane 10 mL, NB 6004273-06-A104): Type A | Identification (anti-solvent (Table 13), solvent DMSO, anti-solvent Toluene 10 mL, NB 6004273-06-A106): Amorphous | Identification (anti-solvent, solvent CHCl3, anti-solvent 2-MeTHF 10 mL, NB 6004273-06-A27): Type A | Identification (anti-solvent, solvent CHCl3, anti-solvent ACN 10 mL, NB 6004273-06-A30): Type A | Identification (anti-solvent, solvent CHCl3, anti-solvent Acetone 10 mL, NB 6004273-06-A22): Type A | Identification (anti-solvent, solvent CHCl3, anti-solvent CPME 10 mL, NB 6004273-06-A42): Type A | Identification (anti-solvent, solvent CHCl3, anti-solvent Cyclohexane 10 mL, NB 6004273-06-A35): Type A | Identification (anti-solvent, solvent CHCl3, anti-solvent DCM 10 mL, NB 6004273-06-A31): Type A | Identification (anti-solvent, solvent CHCl3, anti-solvent EtOAc 10 mL, NB 6004273-06-A24): Type A | Identification (anti-solvent, solvent CHCl3, anti-solvent Ethanol 10 mL, NB 6004273-06-A20): Type A | Identification (anti-solvent, solvent CHCl3, anti-solvent Ethyl formate 10 mL, NB 6004273-06-A40): Type A | Identification (anti-solvent, solvent CHCl3, anti-solvent IPA 10 mL, NB 6004273-06-A21): Type A | Identification (anti-solvent, solvent CHCl3, anti-solvent MEK 10 mL, NB 6004273-06-A36): Type A | Identification (anti-solvent, solvent CHCl3, anti-solvent MIBK 10 mL, NB 6004273-06-A23): Type A | Identification (anti-solvent, solvent CHCl3, anti-solvent MTBE 10 mL, NB 6004273-06-A29): Type A | Identification (anti-solvent, solvent CHCl3, anti-solvent MeOAc 10 mL, NB 6004273-06-A34): Type A | Identification (anti-solvent, solvent CHCl3, anti-solvent THF 10 mL, NB 6004273-06-A26): Type A | Identification (anti-solvent, solvent CHCl3, anti-solvent Toluene 10 mL, NB 6004273-06-A32): Type A | Identification (anti-solvent, solvent CHCl3, anti-solvent iBuOAc 10 mL, NB 6004273-06-A41): Type A | Identification (anti-solvent, solvent CHCl3, anti-solvent iPrOAc 10 mL, NB 6004273-06-A25): Type A | Identification (anti-solvent, solvent CHCl3, anti-solvent n-Heptane 10 mL, NB 6004273-06-A33): Type A | Identification (anti-solvent, solvent CHCl3, anti-solvent n-Propanol 10 mL, NB 6004273-06-A38): Type A | Identification (anti-solvent, solvent CHCl3, anti-solvent n-Propyl acetate 10 mL, NB 6004273-06-A39): Type A | Identification (anti-solvent, solvent CHCl3, anti-solvent t-Butanol 10 mL, NB 6004273-06-A37): Type A | Identification (anti-solvent, solvent DMA, anti-solvent t-Butanol 20 mL, NB 6004273-06-A97): Type M | Identification (anti-solvent, solvent DMF, anti-solvent EtOAc 10 mL, NB 6004273-06-A47): Type A | Identification (anti-solvent, solvent DMF, anti-solvent EtOH 20 mL, NB 6004273-06-A43): Amorphous | Identification (anti-solvent, solvent DMF, anti-solvent IPA 10 mL, NB 6004273-06-A44): Type K | Identification (anti-solvent, solvent DMF, anti-solvent MIBK 10 mL, NB 6004273-06-A46): Amorphous | Identification (anti-solvent, solvent DMF, anti-solvent MTBE 10 mL, NB 6004273-06-A52): Type A | Identification (anti-solvent, solvent DMF, anti-solvent Toluene 10 mL, NB 6004273-06-A56): Type M | Identification (anti-solvent, solvent DMF, anti-solvent n-Propyl acetate 10 mL, NB 6004273-06-A61): Type A | Identification (anti-solvent, solvent DMSO, anti-solvent 2-MeTHF 10 mL, NB 6004273-06-A8): Amorphous | Identification (anti-solvent, solvent DMSO, anti-solvent ACN 20 mL, NB 6004273-06-A11): Type C | Identification (anti-solvent, solvent DMSO, anti-solvent Acetone 10 mL, NB 6004273-06-A3): Type K | Identification (anti-solvent, solvent DMSO, anti-solvent CHCl3 20 mL, NB 6004273-06-A13): Type K | Identification (anti-solvent, solvent DMSO, anti-solvent EtOH 20 mL, NB 6004273-06-A1): Type K | Identification (anti-solvent, solvent DMSO, anti-solvent MIBK 10 mL, NB 6004273-06-A4): Type K | Identification (anti-solvent, solvent DMSO, anti-solvent MTBE 20 mL, NB 6004273-06-A10): Amorphous | Identification (anti-solvent, solvent DMSO, anti-solvent Toluene 10 mL, NB 6004273-06-A14): Amorphous | Identification (anti-solvent, solvent DMSO, anti-solvent n-Propanol 10 mL, NB 6004273-06-A18): Type K | Identification (anti-solvent, solvent DMSO, anti-solvent n-Propyl acetate 10 mL, NB 6004273-06-A19): Type K | Identification (anti-solvent, solvent DMSO, anti-solvent t-Butanol 10 mL, NB 6004273-06-A17): Type K | Identification (anti-solvent, solvent NMP, anti-solvent 1,4-Dioxane 20 mL, NB 6004273-06-A70): Type A | Identification (anti-solvent, solvent NMP, anti-solvent MEK 20 mL, NB 6004273-06-A77): Amorphous | Observations (Anti-solvent addition, DMA 20 mL, 5 mg/mL, anti-solvent t-BuOH 200 mL, Desired Type M, NB 6004273-10-M): Amorphous | Observations (Anti-solvent addition, DMF 20 mL, 5 mg/mL, anti-solvent Toluene 300 mL, Desired Type M, NB 6004273-10-M1): Amorphous | Observations (Anti-solvent addition, DMF 20 mL, 5 mg/mL, anti-solvent n-propanol 200 mL, Desired Type L, NB 6004273-10-L): Amorphous | Observations (Anti-solvent addition, DMSO 10 mL, 60 mg/mL, anti-solvent MIBK 200 mL, Desired Type K, NB 6004273-10-K): Amorphous | Observations (Slurry at 50° C., DMF 0.2 mL, 576 mg/mL, Desired Type G, NB 6004273-10-G): Type F | Observations (Slurry at 100° C. (for 2 days), DMF 0.2 mL, 595 mg/mL, Desired Type G, NB 6004273-10-F-100C): Type F | Observations (Slurry at 150° C. (for 5 d), DMF 0.2 mL, 595 mg/mL, Desired Type G, NB 6004273-10-F-150C): Decomposition | Observations (Slurry at ambient temperature, DMA 0.2 mL, 576 mg/mL, Desired Type E, NB 6004273-10-E): Type E | Observations (Slurry at ambient temperature, DMF 0.2 mL, 595 mg/mL, Desired Type F, NB 6004273-10-F): Type A | Observations (Slurry at ambient temperature, MeCN 0.2 mL, 545 mg/mL, Desired Type C, NB 6004273-10-C): Type C | Observations (Slurry at ambient temperature, MeOH 0.2 mL, 480 mg/mL, Desired Type B, NB 6004273-10-B): Type N | Observations (Slurry at ambient temperature, NMP 0.2 mL, 550 mg/mL, Desired Type D, NB 6004273-10-D): Amorphous
